Read-outs that look alike come from different tables or passages of the source. Peptide text beside a SMILES is read from it.

One data set concerns the target T1, Rabbit lung ACE (Oryctolagus cuniculus, UniProt P12822).
T1 construct: Enzymes including pepsin, pancreatin and rabbit lung ACE were purchased from Sigma Chemical Co; purchased Sigma Chemical Co. (St. Louis, MO, USA); host or cells: rabbit lung (tissue-derived)
T1 sequence (P12822 34-1310): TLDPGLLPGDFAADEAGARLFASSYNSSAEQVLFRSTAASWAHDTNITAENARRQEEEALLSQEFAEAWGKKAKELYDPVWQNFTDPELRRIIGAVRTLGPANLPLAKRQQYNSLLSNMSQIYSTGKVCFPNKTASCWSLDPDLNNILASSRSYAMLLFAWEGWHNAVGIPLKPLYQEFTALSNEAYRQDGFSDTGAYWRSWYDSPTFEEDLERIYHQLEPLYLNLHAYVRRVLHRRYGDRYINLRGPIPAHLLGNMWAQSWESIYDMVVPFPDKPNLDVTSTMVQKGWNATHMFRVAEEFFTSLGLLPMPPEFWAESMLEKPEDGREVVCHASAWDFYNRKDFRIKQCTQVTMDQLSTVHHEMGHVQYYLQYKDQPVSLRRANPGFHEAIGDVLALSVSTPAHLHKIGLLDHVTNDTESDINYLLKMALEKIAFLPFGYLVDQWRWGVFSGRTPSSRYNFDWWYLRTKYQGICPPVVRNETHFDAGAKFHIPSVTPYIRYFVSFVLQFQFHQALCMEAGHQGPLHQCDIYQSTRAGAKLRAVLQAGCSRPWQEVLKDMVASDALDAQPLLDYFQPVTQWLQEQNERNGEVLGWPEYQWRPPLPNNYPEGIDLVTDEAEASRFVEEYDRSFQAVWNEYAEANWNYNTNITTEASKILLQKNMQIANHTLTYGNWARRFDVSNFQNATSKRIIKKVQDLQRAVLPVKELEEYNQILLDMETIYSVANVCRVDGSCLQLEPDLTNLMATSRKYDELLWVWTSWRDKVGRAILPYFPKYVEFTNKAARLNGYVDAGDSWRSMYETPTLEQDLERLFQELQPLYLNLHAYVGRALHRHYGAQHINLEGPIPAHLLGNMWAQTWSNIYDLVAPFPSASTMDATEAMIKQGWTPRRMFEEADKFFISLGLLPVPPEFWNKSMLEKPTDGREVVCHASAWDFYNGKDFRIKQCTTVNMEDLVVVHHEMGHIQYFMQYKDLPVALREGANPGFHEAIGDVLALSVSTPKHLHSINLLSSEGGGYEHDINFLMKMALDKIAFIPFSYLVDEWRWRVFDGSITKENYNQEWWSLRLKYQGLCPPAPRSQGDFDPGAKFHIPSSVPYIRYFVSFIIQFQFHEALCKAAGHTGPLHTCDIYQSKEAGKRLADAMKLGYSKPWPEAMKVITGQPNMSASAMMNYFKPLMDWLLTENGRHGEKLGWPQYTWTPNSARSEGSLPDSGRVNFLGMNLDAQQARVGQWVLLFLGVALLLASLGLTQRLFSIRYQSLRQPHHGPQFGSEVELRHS
Kind of data set: ACE inhibition assay (RP-HPLC, HHL substrate). In kind it is biochemical. The settings on record: for Inhibition (%): at the peak's own peptide concentration; for IC50: identified peptides of peaks E6 to E9. The protocol:
RP-HPLC was used to measure ACE inhibition by means of a method devised by Cushman and Cheung. The sample consisted of 15 mM HHL in Na-borate buffer (100 mM, pH 8.3) plus NaCl (300 mM). […] Equal volumes (75 μL) of the ACE solution and samples passed through a 5-kDa MWCO membrane were then incubated for 10 min at 37 °C. […] of the solution of HHL was then added and incubation was continued for a further 30 min. 1.0 N HCl (250 μL) was used to stop the reaction and 10 μL was injected into a Luna C18 column. […] Finally, inhibition activity was calculated using the following formula:Inhibition activity (%) = ((Ec - Es) / (Ec - Eb)) × 100where Ec is the absorbance when the buffer was added as control, Es is the absorbance when the sample was added to the reaction mixture (sample), and Eb is the absorbance when the stop solution was added before the reaction occurred (blank). […] The data used in this study were all averages of three readings or standard deviations (SDs).

The test system of the next data set is ACE. The settings on record: cited from earlier work.
On the set-up of data set [1]: method as in doi:10.1016/j.idairyj.2015.09.004. The note with it: human volunteers, 100 mg oral, after 30 min; cited from earlier work.
The test system of another data set is ACE activity in plasma. Details: method as in doi:10.1016/j.idairyj.2015.09.004. The settings on record: human volunteers, 100 mg oral, at 1.5 h; cited from earlier work.
The target in data set [2] is angiotensin I-converting enzyme (rabbit lung ACE) (rabbit) (UniProt P12822).
Data set [3] shares this target. The source holds these as a separate data set.
Setting [4] is: RP-HPLC peaks of fraction E from PX-5G.
Setting [5] is: equivalent of the μM value, read-out: IC50 (mg/mL) (converted).
The mark [6] stands for this setting: peptides from Pacific cod skin gelatin hydrolysates (<1 kDa).
Where [7] appears, read: dipeptides from salmon muscle hydrolysate.

With `C[C@H](NC(=O)[C@H](C)NC(=O)[C@@H](N)Cc1c[nH]c2ccccc12)C(=O)O` [Peak E6, Trp-Ala-Ala] (H-Trp-Ala-Ala-OH), at Rabbit lung ACE (setting [4]), the “Inhibition (%)” value is on record as 41.9%. Also, the IC50 at Rabbit lung ACE (setting [5]) is 119 µM; at Rabbit lung ACE (read-out: IC50), 118 ± 2.8 µM.

In the case of `C[C@H](N)C(=O)N[C@@H](Cc1c[nH]c2ccccc12)C(=O)N[C@@H](Cc1c[nH]c2ccccc12)C(=O)O` [Peak E7, Ala-Trp-Trp] (H-Ala-Trp-Trp-OH), the “Inhibition (%)” value at Rabbit lung ACE (setting [4]) stood at 81.1%. In addition, the IC50 at Rabbit lung ACE (setting [5]) is 9.4 µM; on Rabbit lung ACE (read-out: IC50), 9.4 ± 0.6 µM.

On to `CC[C@H](C)[C@H](N)C(=O)N[C@@H](Cc1c[nH]c2ccccc12)C(=O)N[C@@H](Cc1c[nH]c2ccccc12)C(=O)O` [Peak E8, Ile-Trp-Trp] (H-Ile-Trp-Trp-OH), for which the “Inhibition (%)” value at Rabbit lung ACE (setting [4]) is listed as 93.4%. Further, the IC50 was 0.516 µM on Rabbit lung ACE (setting [5]) and 0.51 ± 0.1 µM at Rabbit lung ACE (read-out: IC50).

`CC(C)C[C@H](NC(=O)[C@@H](N)Cc1c[nH]c2ccccc12)C(=O)O` [Peak E9, Trp-Leu] (H-Trp-Leu-OH; N-terminus and C-terminus assumed): the “IER (inhibitory efficiency ratio)” value on Rabbit lung ACE (setting [4]) is given as 3021.4 %/mg/mL. Moreover, the “Inhibition (%)” value on Rabbit lung ACE (setting [4]) is 42.3%. The IC50 on Rabbit lung ACE (setting [5]) is 26.8 µM; on Rabbit lung ACE (read-out: IC50), 26.8 ± 0.9 µM; with ACE, 29.9 to 34.1 µM. In the data set on ACE, the ACE-inhibition mode result was “noncompetitive inhibitors”. Further, the maximum plasma concentration in data set [1] was 29 to 36 pmol/mL. For the same molecule, the “decrease of ACE activity in plasma” value in the data set on ACE activity in plasma is given as 16–22%.

Consider Ala-Trp-Trp (peptide), for which, in data set [2], the Inhibition (%) of ACE enzyme activity by peak E7 at 0.058 mg/mL peptide turned out to be 81.1%. Also, the IC50 of inhibition of ACE enzyme activity (hippuric acid released from HHL, RP-HPLC, 37 °C, pH 8.3) in data set [3] came out at 9.4 μM.

For G-A-S-S-G-M-P-G (GASSGMPG), the IC50 in the data set with ACE (setting [6]) is 6.9 µM.

As to G–R-G-S–V-P–A–Hyp–G-P, in the data set on ACE (peptide from squid skin collagen hydrolysate fraction <1 kDa), the IC50 was 47.8 µM.

As for Ile-Trp-Trp (peptide), the Inhibition (%) of ACE enzyme activity by peak E8 at 0.028 mg/mL peptide in data set [2] came out at 93.4%. In data set [3], the IC50 of inhibition of ACE enzyme activity (hippuric acid released from HHL, RP-HPLC, 37 °C, pH 8.3) came out at 0.51 μM.

Take L-A-Y-A: the IC50 in the data set on ACE (setting [6]) is 14.5 µM.

Turning to Leu-Trp, the ACE-inhibition mode result in the data set with ACE was “noncompetitive inhibitors”.

Turning to Met-Trp, in the data set with ACE (setting [7]), the IC50 is 9.8 µM.

Turning to Trp-Ala-Ala (peptide), the Inhibition (%) of ACE enzyme activity by peak E6 at 0.048 mg/mL peptide in data set [2] worked out at 41.9%. Moreover, the IC50 of inhibition of ACE enzyme activity (hippuric acid released from HHL, RP-HPLC, 37 °C, pH 8.3) in data set [3] was determined as 118 μM.

Molecule Trp-Leu (peptide) displayed an Inhibition (%) of ACE enzyme activity by peak E9 at 0.014 mg/mL peptide in data set [2] of 42.3%. The IC50 of inhibition of ACE enzyme activity (hippuric acid released from HHL, RP-HPLC, 37 °C, pH 8.3) in data set [3] came to 26.8 μM.

Take Trp-Met: in the data set on ACE (setting [7]), the IC50 was 98.6 µM.

For “Val-Arg-Tyr-Leu (VRYL; printed: Val-Arg-Tyr-Leu)”, the “IC50 before hydrolysis with gastrointestinal proteases” value with ACE (peptide from Manchego cheese) was 9 mg/L.

(Values after paper PMC6628374, “Preparation and Identification of Novel Antihypertensive Peptides from the In Vitro Gastrointestinal Digestion of Marine Cobia Skin Hydrolysates” (Nutrients, 2019).)
